The text below walks through data of patent publication US20060194740A1, “NOD1 as an anti-tumor agent” (priority 2005, published 2006).

Test [1] concerns MCF-7 C20 cells. In words: Propidium iodide exclusion cell death assay, Nod1-deficient MCF-7 C20 cells. The class given is cell-based, human. To be noted: C20 cells, charcoal-treated serum, γTriDAP/CHX (FIG. 12A, middle panel). Here is the method:
Cell viability assays. […] Subsequently, cells were harvested, washed twice in FACS buffer (PBS containing 1% FCS and 0.1% NaN3) and resuspended in propidium iodide (PI)—containing FACS buffer (4 ug/ml). The extent of cell death was analyzed with a FACSCalibur flow cytometer (Becton Dickinson, Mountain View, Calif.). DAPI staining: MCF-7 cells were plated in chamber slides, and stimulated for 2 days. Cells were washed with PBS and apoptotic nuclei were stained with 1 μg/ml DAPI (Sigma Chemical Co., St. Louis, Mo.). Cells were fixed in 4% paraformaldehyde and examined by fluorescence microscopy.
(§1) To further investigate the role of Nod1 in apoptosis, a variety of cell types were incubated with the Nod1 ligand, […] (γTriDAP), which specifically activates Nod1. The cell types tested included the parental MCF-7 cell line, the Nod1-deficient MCF-7C20 clone, and a cell line engineered to contain an additional human Nod1 allele (MCF-7Nod1) so that Nod1 was over-expressed. To determine whether the resistance of C20 cells to γTriDAP-induced apoptosis resulted from the absence of Nod1, human Nod1 was stably expressed in MCF-7 C20 cells to produce Nod1-sufficient C20 cells (C20/Nod1). As another control, the parental MCF-7 cell line was transfected with an empty retroviral vector to generate MCF-7 Blasto cells. Cells were treated with γTriDAP in the presence or absence of cycloheximide (CHX) and cell death was then determined by propidium iodide staining and flow cytometry.

The test system of test [2] is MCF-7 C20/Nod1. Description: Human xenograft in SCID mice, MCF-7 C20/Nod1 cells. The class given is in vivo. To be noted: mice that received MCF-7 C20/Nod1, estrogen pellets present (FIG. 11B). As for the experimental part: (§2) Human xenografts in nude mice. MCF-7 Blasto, MCF-7 C20 and MCF-7 C20/Nod1 cells were trypsinized, washed once with PBS and resuspended to a concentration of 1.5×10^7/ml. Two hundred microliters of each suspension were inoculated subcutaneously into the flank of athymic SCID/SCID or SCID/Nod (non-obese diabetic) female mice. Tumor size was assessed once a week. Tumor volume was calculated.
(§3) Nod1 controls tumor formation. Nod1-dependent apoptotic pathways might be important in a number of biological processes, including tumor cell growth regulation and a failure of malignant cells to undergo cell death, leading to tumorigenesis. A xenograft model of tumor growth in SCID mice was used to examine the role that Nod1 plays in tumor growth and tumor rejection. Populations of MCF-7Blasto, MCF-7C20 and MCF-7C20Nod1 cells (each totaling about 3×10^6 cells), were separately injected subcutaneously into the flanks of female mice to induce tumor growth in SCID/SCID or SCID/Nod1 mice. Animals were scored for tumor formation once a week post-injection for up to 8 weeks.
(§4) In most studies, tumor formation by MCF-7 cells requires supplementation of estrogens for tumorigenesis in nude mice, even when cells are inoculated at high concentration. To further examine the role of estrogen in tumorigenesis, all three cell lines were injected into mice along with estrogen pellets (FIG. 11B). […]
(In general: Xenograft models place foreign cells or tissue in a host animal.)

Test [3] deals with MCF-7 C20 cells. In words: 3H-thymidine proliferation assay, MCF-7 C20 cells. Format: cell-based, human. To be noted: cells grown in the absence of estrogen, estrogen added; 3H-thymidine (FIG. 11D). Here is the method: Retroviral transfections. The various genes used in this study were cloned into pMSCV-Blasto, pBabe-Puro or pBabe-Neo retroviral vectors. MCF-7 cells were stably transfected using available procedures. Briefly, amphotropic 293 cells were transfected with retroviral vectors encoding selected Nod1, Nod2 and other proteins. Twenty-four hours post-transfection, cells were incubated at 32° C. overnight to produce viral particles. Target cells were infected the next day with virus-containing 293 cell supernatants containing recombinant retroviral particles. Cells were selected with 10 μg/ml blasticidin S (Calbiochem EMD Biosciences Inc., San Diego, Calif.), 500 μg/ml […] (Invitrogen, Carlsbad, Calif.) or 5 μg/ml puromycin (Calbiochem). The expression of all constructs was confirmed by Western blot analysis. To determine the effects of 17β-estradiol (Calbiochem), cells were cultured in phenol red-free DMEM supplemented with […]. Cells were seeded in 96 well plates with various concentration of 17β-estradiol (E2) for 24 h and pulsed with ^3H-thymidine (1 μCi/well, MP Biomedicals, Irvine, Calif.). Cells were harvested on glass fiber filters and radioactivity measured by liquid scintillation. […]

The subject of test [4] is MCF-7 C20 cells. Description: Human xenograft in SCID mice, MCF-7 C20 cells. The class given is in vivo. To be noted: mice injected with MCF-7 C20 cells, estrogen pellets present (FIG. 11B). As for the experimental part: as §2, §3, §4
Test [5] deals with MCF-7 Blasto cells. Description: Human xenograft in SCID mice, MCF-7 Blasto cells. To be noted: mice injected with MCF-7 Blasto cells, estrogen pellets present (FIG. 11B). Format: in vivo. As for the experimental part: as §2, §3, §4
Test [6] has as its system MCF-7 C20/Nod1 cells. In words: Propidium iodide exclusion apoptosis assay, MCF-7 C20/Nod1 cells. The class given is cell-based, human. To be noted: C20/Nod1 and Blasto cells, charcoal-treated serum, increasing estrogen (FIG. 12A). Here is the method: Cell viability assays. Propidium iodide exclusion assay: Cells were stimulated as indicated for 2 days. Subsequently, cells were harvested, washed twice in FACS buffer (PBS containing 1% FCS and 0.1% NaN3) and resuspended in propidium iodide (PI)—containing FACS buffer (4 ug/ml). The extent of cell death was analyzed with a FACSCalibur flow cytometer (Becton Dickinson, Mountain View, Calif.). DAPI staining: MCF-7 cells were plated in chamber slides, and stimulated for 2 days. Cells were washed with PBS and apoptotic nuclei were stained with 1 μg/ml DAPI (Sigma Chemical Co., St. Louis, Mo.). Cells were fixed in 4% paraformaldehyde and examined by fluorescence microscopy.
as §1
To determine whether the presence of estrogens modulates Nod1-induced apoptotic pathway, cells were cultured in medium containing charcoal-treated serum.

Consider 17β-estradiol [estrogen], for which, in test [1], the “effect of estrogen upon apoptosis” value is “little or no effect”. The tumor growth entry in test [2] is recorded as “did not grow tumors”; in test [4], “grew even larger”; in test [5], “tumors grew”. The proliferative response result in test [3] is listed as “strong proliferative response”. In addition, the “effect of estrogen upon γTriDAP-induced apoptosis” value in test [6] is “apoptosis increased in a dose-dependent manner”.
